Converted amounts (≈) assume the structure as drawn. The source made the active and inactive calls. The rule behind the calls is not given here.
Test system: Lymphocyte
Test: Immunosuppressive activity against lymphocyte by mixed lymphocyte reaction assay
Format: functional, cell-based
Conditions: not given

SMILES | Activity
C#CC(O)/C=C/CCCCCCCCC/C=C/CCCCC(C)C (centres undefined) | Active
C#C[C@H](O)/C=C/CCCCCCCCC/C=C/CCCCCC | Active
C#C[C@H](O)/C=C/CCCCCCCCCCC(C)CCCC (some centres undefined) | Active
C#CC(O)/C=C/CCCCCCCCCCCCCCC (centres undefined) | Active
C#C[C@H](O)/C=C/CCCCCCCCCCCCCC(C)C | Active

Test system: not listed separately
Test: (§1) Toxicity against Artemia salina
Format: organism-based
Conditions: in vivo

SMILES | LC50 [µg/mL]
C#C[C@H](O)/C=C/CCCCCCCCC/C=C/CCCCCC | 0.4 (≈ 1.26 µM)
C#C[C@H](O)/C=C/CCCCCCCCCCC(C)CCCC (some centres undefined) | 0.8 (≈ 2.61 µM)
C#C[C@H](O)CCCCCCCCCCCCC(C)CCCC (some centres undefined) | 1.2 (≈ 3.89 µM)
C#C[C@H](O)CCCCCCCCCCCCCCCC(C)C | 1 (≈ 3.24 µM)
C#C[C@H](O)/C=C/CCCCCCCCCCCCCC(C)C | 0.8 (≈ 2.61 µM)
C#C/C=C/CCCCCCCCCC/C=C\CCCCCC | 1.1 (≈ 3.64 µM)
C#C[C@H](O)/C=C/CCCCCCCCC(C)CCCCCCCC (some centres undefined) | 0.03 (≈ 0.0897 µM)

Test system: Artemia salina
Test: as §1
Format: organism-based
Conditions: in vivo

SMILES | Activity
C#CC(O)/C=C/CCCCCCCCC/C=C/CCCCC(C)C (centres undefined) | Toxic
C#CC(O)/C=C/CCCCCCCCCCCCCCC (centres undefined) | Toxic

Test system: P388
Test: Antitumor activity against mouse P388 cells
Format: functional, cell-based
Conditions: not given

SMILES | Activity
C#CC(O)/C=C/CCCCCCCCC/C=C/CCCCC(C)C (centres undefined) | Active
C#C[C@H](O)/C=C/CCCCCCCCC/C=C/CCCCCC | Active
C#C[C@H](O)/C=C/CCCCCCCCCCC(C)CCCC (some centres undefined) | Active
C#CC(O)/C=C/CCCCCCCCCCCCCCC (centres undefined) | Active
C#C[C@H](O)/C=C/CCCCCCCCCCCCCC(C)C | Active
